# Source: US9434724B2, “Quinuclidines for modulating alpha 7 activity” (priority 2014, dated 2016)
# Where two headings read alike, the source gives them in different places.
# Tests used:
# [1] = Metabolic stability assay in human liver microsomes (HLM); assay type: in vitro ADME; details: 1 μM
# How it was run: (§1)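 In Protocol 1, compound was 1 μM final with NADPH at 37 °C, sampled at 0–45 min. In Protocol 2, 1.5 μM compound with 0.75 mg/mL microsomes (pre-NADPH mix) in 0.1 M potassium phosphate, 1 mM EDTA, pH 7.4 was pre-incubated 10 min, then NADPH started the reaction. Both: LC-MS/MS % remaining versus time 0, half-life from single-phase exponential fit.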
# [2] = Metabolic stability assay in rat liver microsomes (RLM); assay type: in vitro ADME; details: 1 μM
# How it was run: as §1
# Human plasma stability = assay type: in vitro ADME; details: for % Remaining @ 2 h / T1/2: plasma; for % Remaining @ 2 h: 5 μM
# How it was run: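 Protocol 1: 1 μM compound in pH 7.4 sodium-heparin human plasma at 37° C, sampled 0–120 min. Protocol 2: 5 μM in plasma at pH 7.4–8.0, 37° C, duplicates, sampled 0–120 min. Both: LC-MS/MS percent remaining versus t0; half-life from single-phase exponential decay.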
# CYP2C19 [3] = molecular target: T1, CYP2C19 (Homo sapiens (Human), UniProt P33261); details: microsomes
# CYP3A4 [4] = molecular target: T2, CYP3A4 (Homo sapiens (Human), UniProt P08684); details: microsomes, 5 min
# CYP1A2 = CYP1A2 (Homo sapiens (Human), UniProt P05177); assay: Cytochrome P450 inhibition in human liver microsomes, CYP1A2
# [5] = molecular target: rat brain nicotinic receptor (α7 NAChR) (Rattus norvegicus (Rat), UniProt Q05941); assay type: binding
# CYP2D6 = CYP2D6 (Homo sapiens (Human), UniProt P10635); assay: Cytochrome P450 inhibition in human liver microsomes, CYP2D6
# CYP2C19 [6] = molecular target: T1, CYP2C19; assay: Cytochrome P450 inhibition in human liver microsomes, CYP2C19
# CYP2C9 = CYP2C9 (Homo sapiens (Human), UniProt P11712); assay: Cytochrome P450 inhibition in human liver microsomes, CYP2C9
# CYP3A4 [7] = molecular target: T2, CYP3A4; assay: Cytochrome P450 inhibition in human liver microsomes, CYP3A4
# [8] = read-out: 2C19 IC50, Protocol 1
# [9] = read-out: 3A4 IC50 (Midazolam), substrate midazolam, Protocol 1
# [10] = read-out: 3A4 IC50 (Testosterone), substrate testosterone, Protocol 1
# [11] = Protocol No. 1, human liver microsomes
# [12] = Protocol No. 1, rat liver microsomes
# rat brain nicotinic receptor (α7 NAChR), sequence (Q05941 23-502 limits assumed): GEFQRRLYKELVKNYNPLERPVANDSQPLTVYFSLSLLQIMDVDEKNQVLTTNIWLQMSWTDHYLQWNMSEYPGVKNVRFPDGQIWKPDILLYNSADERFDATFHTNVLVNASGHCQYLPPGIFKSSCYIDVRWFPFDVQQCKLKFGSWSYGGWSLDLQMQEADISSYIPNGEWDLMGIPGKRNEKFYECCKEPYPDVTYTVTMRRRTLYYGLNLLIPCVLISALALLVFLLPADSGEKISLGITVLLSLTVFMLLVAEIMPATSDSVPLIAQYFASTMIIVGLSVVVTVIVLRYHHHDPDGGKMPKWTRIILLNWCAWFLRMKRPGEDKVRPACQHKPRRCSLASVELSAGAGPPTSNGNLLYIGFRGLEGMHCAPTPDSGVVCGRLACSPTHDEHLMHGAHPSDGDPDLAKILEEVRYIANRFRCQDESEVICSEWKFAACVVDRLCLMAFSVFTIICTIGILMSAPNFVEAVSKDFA
# CYP2C9, sequence (P11712 whole entry): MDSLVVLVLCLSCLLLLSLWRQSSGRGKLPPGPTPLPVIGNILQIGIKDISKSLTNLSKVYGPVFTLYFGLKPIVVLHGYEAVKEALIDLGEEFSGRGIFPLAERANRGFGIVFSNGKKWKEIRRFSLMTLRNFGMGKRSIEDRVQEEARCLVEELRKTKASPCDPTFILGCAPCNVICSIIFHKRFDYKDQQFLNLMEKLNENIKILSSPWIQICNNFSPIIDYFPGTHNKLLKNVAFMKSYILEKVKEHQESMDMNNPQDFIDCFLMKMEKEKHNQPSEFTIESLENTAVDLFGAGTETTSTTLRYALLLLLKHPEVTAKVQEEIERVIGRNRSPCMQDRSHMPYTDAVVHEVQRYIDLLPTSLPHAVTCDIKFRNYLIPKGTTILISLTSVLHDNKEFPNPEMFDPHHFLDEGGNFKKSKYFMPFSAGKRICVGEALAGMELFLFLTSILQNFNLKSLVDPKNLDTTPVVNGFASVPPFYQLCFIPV
# CYP1A2, sequence (P05177 whole entry): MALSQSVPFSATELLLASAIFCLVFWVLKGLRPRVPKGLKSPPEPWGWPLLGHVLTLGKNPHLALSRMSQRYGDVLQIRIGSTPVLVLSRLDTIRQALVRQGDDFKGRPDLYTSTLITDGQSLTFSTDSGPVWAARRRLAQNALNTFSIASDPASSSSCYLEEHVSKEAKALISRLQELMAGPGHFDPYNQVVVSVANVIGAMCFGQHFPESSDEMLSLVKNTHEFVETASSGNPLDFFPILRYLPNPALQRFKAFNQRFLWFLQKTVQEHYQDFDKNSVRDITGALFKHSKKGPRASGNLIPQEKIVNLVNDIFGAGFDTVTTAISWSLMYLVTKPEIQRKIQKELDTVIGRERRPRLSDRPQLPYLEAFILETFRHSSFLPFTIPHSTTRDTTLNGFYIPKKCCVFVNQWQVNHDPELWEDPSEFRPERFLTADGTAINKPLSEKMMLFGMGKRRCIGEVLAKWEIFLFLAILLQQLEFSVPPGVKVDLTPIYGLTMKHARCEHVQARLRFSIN
# T1 sequence (P33261 whole entry): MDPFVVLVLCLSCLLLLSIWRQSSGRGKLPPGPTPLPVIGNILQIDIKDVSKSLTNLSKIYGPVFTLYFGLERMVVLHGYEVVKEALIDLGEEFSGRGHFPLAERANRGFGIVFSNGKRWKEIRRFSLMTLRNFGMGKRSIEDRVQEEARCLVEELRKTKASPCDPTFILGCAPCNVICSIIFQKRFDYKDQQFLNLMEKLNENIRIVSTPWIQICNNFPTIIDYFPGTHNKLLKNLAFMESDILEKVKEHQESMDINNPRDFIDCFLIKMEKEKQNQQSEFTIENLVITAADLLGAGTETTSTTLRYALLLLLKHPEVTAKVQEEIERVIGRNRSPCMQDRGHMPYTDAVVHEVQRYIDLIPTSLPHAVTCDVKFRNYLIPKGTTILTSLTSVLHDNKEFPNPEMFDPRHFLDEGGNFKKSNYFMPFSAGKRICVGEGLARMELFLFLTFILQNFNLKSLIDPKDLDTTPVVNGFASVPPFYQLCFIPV
# CYP2D6, sequence (P10635 whole entry): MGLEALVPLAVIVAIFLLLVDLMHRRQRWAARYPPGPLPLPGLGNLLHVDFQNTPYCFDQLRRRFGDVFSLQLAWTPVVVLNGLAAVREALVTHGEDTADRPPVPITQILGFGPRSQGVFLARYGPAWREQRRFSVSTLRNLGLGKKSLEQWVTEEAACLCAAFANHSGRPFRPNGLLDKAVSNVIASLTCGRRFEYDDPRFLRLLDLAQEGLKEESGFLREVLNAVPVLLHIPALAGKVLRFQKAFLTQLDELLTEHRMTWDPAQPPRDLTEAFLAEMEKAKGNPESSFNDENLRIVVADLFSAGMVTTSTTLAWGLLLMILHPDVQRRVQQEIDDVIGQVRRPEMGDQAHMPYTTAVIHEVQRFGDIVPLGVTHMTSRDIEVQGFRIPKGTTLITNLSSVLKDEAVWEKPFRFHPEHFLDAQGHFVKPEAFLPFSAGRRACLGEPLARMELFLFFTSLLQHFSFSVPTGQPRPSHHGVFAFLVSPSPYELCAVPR
# T2 sequence (P08684 whole entry): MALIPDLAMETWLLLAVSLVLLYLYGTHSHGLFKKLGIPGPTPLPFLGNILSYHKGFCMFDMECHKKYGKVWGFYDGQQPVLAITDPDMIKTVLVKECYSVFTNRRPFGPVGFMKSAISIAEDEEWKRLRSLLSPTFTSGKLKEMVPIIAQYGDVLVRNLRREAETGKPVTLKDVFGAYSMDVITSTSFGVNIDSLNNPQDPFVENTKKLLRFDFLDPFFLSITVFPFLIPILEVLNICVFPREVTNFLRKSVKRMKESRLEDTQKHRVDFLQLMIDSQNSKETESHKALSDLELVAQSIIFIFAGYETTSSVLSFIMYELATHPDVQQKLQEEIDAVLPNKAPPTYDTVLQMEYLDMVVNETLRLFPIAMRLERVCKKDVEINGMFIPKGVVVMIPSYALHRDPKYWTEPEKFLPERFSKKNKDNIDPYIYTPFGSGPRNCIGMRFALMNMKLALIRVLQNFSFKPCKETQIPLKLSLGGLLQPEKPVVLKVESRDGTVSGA
Structure (SMILES),"HLM ([1]; human, microsomes) [mL/min/kg]","RLM ([2]; rat, microsomes) [mL/min/kg]","% Remaining @ 2 h (Human plasma stability; human, 2 h) [%]",IC50 (CYP2C19 [3]; 45 min) [µM],IC50 (CYP3A4 [4]) [µM],"IC50 (CYP1A2; read-out: 1A2 IC50, Protocol 1) [µM]",IC50 [5] [µM],Ki [5] [µM],IC50 (CYP2C19 [6]; [8]) [µM],"IC50 (CYP2C9; read-out: 2C9 IC50, Protocol 1) [µM]",further results
"COc1cc2[nH]cc(C(=O)OCC34CCN(CC3)CC4)c2cc1C [Compound 56, quinuclidin-4-ylmethyl 6-methoxy-5-methyl-1H-indole-3-carboxylate]",4.868,1196.24,77.82,> 10,> 10,> 10,0.644,0.552,,,
"Cc1cccc2c(C(=O)OCC34CCN(CC3)CC4)c[nH]c12 [Compound 19, quinuclidin-4-ylmethyl 7-methyl-1H-indole-3-carboxylate]",,,,,,,0.764,0.665,,,"HLM ([1]; human, microsomes, pH 7.4): <13.608 mL/min/kg; RLM ([2]; rat, microsomes, pH 7.4): 280.991 mL/min/kg; IC50 (CYP2D6; read-out: 2D6 IC50, Protocol 2): > 10 µM; IC50 (CYP2C19 [3]): > 10 µM; IC50 (CYP1A2; read-out: 1A2 IC50, Protocol 2): > 10 µM"
"O=C(OCC12CCN(CC1)CC2)c1c[nH]c2cc(Cl)cc(Br)c12 [Compound 42, quinuclidin-4-ylmethyl 4-bromo-6-chloro-1H-indole-3-carboxylate]",12.43,55.27,72.21,,> 10,> 10,,,> 10,> 10,
"Cc1cc(Br)c2c(C(=O)OCC34CCN(CC3)CC4)c[nH]c2c1 [Compound 49, quinuclidin-4-ylmethyl 4-bromo-6-methyl-1H-indole-3-carboxylate]",5.963,254.566,93.39,> 10,> 10,> 10,0.25,0.214,,,
"Cc1cc2c(C(=O)OCC34CCN(CC3)CC4)c[nH]c2cc1O [Compound 55, quinuclidin-4-ylmethyl 6-hydroxy-5-methyl-1H-indole-3-carboxylate]",10.3473,45.1417,40.33,> 10,> 10,> 10,0.0523,0.0448,,,"IC50 (CYP2D6; read-out: 2D6 IC50, Protocol 1): > 10 µM"
"Cc1cc(C#N)cc2[nH]cc(C(=O)OCC34CCN(CC3)CC4)c12 [Compound 60, quinuclidin-4-ylmethyl 6-cyano-4-methyl-1H-indole-3-carboxylate]",15.0953,78.5875,89.46,> 10,> 10,> 10,0.474,0.407,,,"IC50 (CYP2D6; read-out: 2D6 IC50, Protocol 1): > 10 µM"
"COc1cc(Cl)c2c(C(=O)OCC34CCN(CC3)CC4)c[nH]c2c1 [Compound 38, quinuclidin-4-ylmethyl 4-chloro-6-methoxy-1H-indole-3-carboxylate]",8.15,76.79,96.52,> 10,> 10,> 10,0.396,0.341,,,T1/2 (Human plasma stability; human): ∞
"COc1cc(C)c2c(C(=O)OCC34CCN(CC3)CC4)c[nH]c2c1 [Compound 37, quinuclidin-4-ylmethyl 6-methoxy-4-methyl-1H-indole-3-carboxylate]",20.18,33.07,108.49,,> 10,> 10,,,> 10,> 10,T1/2 (Human plasma stability; human): ∞
"COc1cc(Br)c2c(C(=O)OCC34CCN(CC3)CC4)c[nH]c2c1 [Compound 48, quinuclidin-4-ylmethyl 4-bromo-6-methoxy-1H-indole-3-carboxylate]",7.539,69.1781,101.03,> 10,,> 10,0.42,0.36,,,"IC50 (CYP3A4 [7]; [9]): > 10 µM; IC50 (CYP3A4 [7]; [10]): > 10 µM; IC50 (CYP2D6; read-out: 2D6 IC50, Protocol 1): > 10 µM"
"Cc1cc(O)cc2[nH]cc(C(=O)OCC34CCN(CC3)CC4)c12 [Compound 83, quinuclidin-4-ylmethyl 6-hydroxy-4-methyl-1H-indole-3-carboxylate]",2.7,14.09,71.57,,> 10,> 10,0.0318,0.0279,> 10,> 10,
"COc1cc(F)c2c(C(=O)OCC34CCN(CC3)CC4)c[nH]c2c1.Cl [Compound 33, Quinuclidin-4-ylmethyl 4-fluoro-6-methoxy-1H-indole-3-carboxylate hydrochloride]",,,,,,,0.0496,0.0432,,,"HLM ([1]; Protocol No. 2, human liver microsomes): <13.608 mL/min/kg; RLM ([2]; Protocol No. 2, rat liver microsomes): 47.7 mL/min/kg; IC50 (CYP3A4 [7]; read-out: 3A4 IC50 (Midazolam), substrate midazolam, Protocol 2): > 10 µM; IC50 (CYP2D6; read-out: 2D6 IC50, Protocol 2): > 10 µM; IC50 (CYP2C19 [6]; read-out: 2C19 IC50, Protocol 2): > 10 µM; half-life at 1 μM (Human plasma stability; pH 7.4, Protocol No. 1, human plasma, 1 μM, 37° C., read-out: T1/2): 17.6 min; IC50 (CYP1A2; read-out: 1A2 IC50, Protocol 2): > 10 µM; IC50 (CYP2C9; read-out: 2C9 IC50, Protocol 2): > 10 µM"
"Cc1cc(Cl)cc2[nH]cc(C(=O)OCC34CCN(CC3)CC4)c12 [Compound 50, quinuclidin-4-ylmethyl 6-chloro-4-methyl-1H-indole-3-carboxylate]",2.98,187.575,100.92,,> 10,> 10,1.29,1.1,> 10,> 10,T1/2 (Human plasma stability; human): ∞
"COc1cc2c(C(=O)OCC34CCN(CC3)CC4)c[nH]c2cc1F [Compound 57, quinuclidin-4-ylmethyl 6-fluoro-5-methoxy-1H-indole-3-carboxylate]",,,,,,> 10,0.257,0.221,> 10,> 10,"HLM [1, 11]: 0 mL/min/kg; RLM [2, 12]: 153.227 mL/min/kg; IC50 (CYP3A4 [7]; [9]): > 10 µM; IC50 (CYP3A4 [7]; [10]): > 10 µM; IC50 (CYP2D6; read-out: 2D6 IC50, Protocol 1): > 10 µM; % Remaining @ 2 h (Human plasma stability; Protocol No. 2, 37° C.): 76.33%"
"Cl.O=C(OCC12CCN(CC1)CC2)c1c[nH]c2cc(F)c(F)cc12 [Compound 51, Quinuclidin-4-ylmethyl 5,6-difluoro-1H-indole-3-carboxylate hydrochloride]",,,,,,> 10,0.662,0.568,> 10,> 10,"HLM [1, 11]: 1.004 mL/min/kg; RLM [2, 12]: 716.882 mL/min/kg; IC50 (CYP3A4 [7]; [9]): > 10 µM; IC50 (CYP3A4 [7]; [10]): > 10 µM; IC50 (CYP2D6; read-out: 2D6 IC50, Protocol 1): > 10 µM; % Remaining @ 2 h (Human plasma stability; Protocol No. 2, 37° C.): 79.3649%"
"Cc1cc(C)c2c(C(=O)OCC34CCN(CC3)CC4)c[nH]c2c1 [Compound 54, quinuclidin-4-ylmethyl 4,6-dimethyl-1H-indole-3-carboxylate]",5.294,175.357,89.87,> 10,> 10,> 10,0.4,0.343,,,
"O=C(OCC12CCN(CC1)CC2)c1c[nH]c2cc(F)cc(Br)c12 [Compound 41, quinuclidin-4-ylmethyl 4-bromo-6-fluoro-1H-indole-3-carboxylate]",7.55,86.59,120.27,,> 10,> 10,0.76,0.655,> 10,> 10,T1/2 (Human plasma stability; human): ∞
"COc1ccc2[nH]cc(C(=O)OCC34CCN(CC3)CC4)c2c1Br [Compound 47, quinuclidin-4-ylmethyl 4-bromo-5-methoxy-1H-indole-3-carboxylate]",13.5926,541.358,72.43,> 10,> 10,> 10,0.0333,0.0285,,,
